Results as given in patent US20140288185A1, “NICOTINIC RECEPTOR NON-COMPETITIVE MODULATORS” (Targacept, Inc., priority 2011, published 2014).

Legend:
human α4β2 (HS) = human α4β2 (HS) (Homo sapiens, UniProt P17787+P43681); assay: Calcium flux inhibition, SH-EP1-human α4β2 treated at 29° C. (HS); format: cell-based
Experimental: (§1) SH-EP1-human α4β2 (Eaton et al., 2003), cell lines were obtained from Dr. Ron Lukas (Barrow Neurological Institute). Cells were maintained in proliferative growth phase in Dulbecco's modified Eagle's medium (Invitrogen, Carlsbad, Calif.) with 10% horse serum (Invitrogen), 5% fetal bovine serum (HyClone, Logan Utah), 1 mM sodium pyruvate, 4 mM L-glutamine. For maintenance of stable transfectants, the α4β2 cell media was supplemented with 0.25 mg/mL zeocin and 0.13 mg/mL hygromycin B.
(§2) Forty-eight hours prior to each experiment, cells were plated in 96 well black-walled, clear bottom plates (Corning, Corning, N.Y.) at 60-100,000 cells/well. On the day of the experiment, growth medium was gently removed, 200 μL 1×FLIPR Calcium 4 Assay reagent (Molecular Devices, Sunnyvale, Calif.) in assay buffer (20 mM HEPES, 7 mM TRIS base, 4 mM CaCl2, 5 mM D-glucose, 0.8 mM MgSO4, 5 mM KCl, 0.8 mM MgCl2, 120 mM N-methyl D-glucamine, 20 mM NaCl, pH 7.4 for SH-EP1-human α4β2 cells or 10 mM HEPES, 2.5 mM CaCl2, 5.6 mM D-glucose, 0.8 mM MgSO4, 5.3 mM KCl, 138 mM NaCl, pH 7.4 with TRIS-base for all other cell lines) was added to each well and plates were incubated at 37° C. for 1 hour (29° C. for the 29° C.-treated SH-EP1-human α4β2 cells). For inhibition studies, competitor compound (10 pM-10 μM) was added at the time of dye addition. The plates were removed from the incubator and allowed to equilibrate to room temperature. Plates were transferred to a FLIPR Tetra fluorometric imaging plate reader (Molecular Devices) for addition of compound and monitoring of fluorescence (excitation 485 nm, emission 525 nm). The amount of calcium flux was compared to both a positive (nicotine) and negative control (buffer alone). The positive control was defined as 100% response and the results of the test compounds were expressed as a percentage of the positive control. For inhibition studies, the agonist nicotine was used at concentrations of 1 μM for SH-EP1-human α4β2 treated at 29° C. (HS), 10 μM for SH-EP1-human α4β2 maintained at 37° C. (LS), and 20 μM for SH-SY5Y cells or CHO_human α3β4.

Nicotinic, human α3β4 = molecular target: T1, Nicotinic, human α3β4 (Homo sapiens, UniProt P30926+P32297); assay: Competition binding, human α3β4 nicotinic receptor (CHO human α3β4 membranes)
T1 construct: host or cells: CHO
Experimental: (§3) CHO-human α3β4 cells (obtained from ChanTest, Cleveland, Ohio, catalog #CT6021) were maintained in proliferative growth phase in Ham's F12 (VWR) with 10% fetal bovine serum (Invitrogen), 0.25 mg/mL geneticin; 0.4 mg/ml zeocin. The amino acid sequences encoded by the transfected cDNA constructs used to generate the CHO-human α3β4 cells are identical to the translated sequences for GenBank accession numbers NM_000743.2 and NM_000750.3, respectively.
(§4) Cells were harvested in ice-cold PBS, pH 7.4, then homogenized with a Polytron (Kinematica GmbH, Switzerland). Homogenates were centrifuged at 40,000 g for 20 minutes (4° C.). The pellet was re-suspended in PBS and protein concentration determined using the Pierce BCA Protein Assay kit (Pierce Biotechnology, Rockford, Ill.).
(§5) Binding to nicotinic receptors was assayed on membranes using standard methods adapted from published procedures (Lippiello and Fernandes 1986; Davies et al., 1999). In brief, membranes were reconstituted from frozen stocks and incubated for 2 h on ice in 150 μl assay buffer (50 mM Tris, 154 mM NaCl, pH 7.4) in the presence of competitor compound (0.001 nM to 100 μM) and radioligand. [^3H]-nicotine (L-(−)-[N-methyl-^3H]-nicotine, 69.5 Ci/mmol, Perkin-Elmer Life Sciences, Waltham, Mass.) was used for human α4β2 binding studies. [^3H]-epibatidine (52 Ci/mmol, Perkin-Elmer Life Sciences) was used for binding studies at the other nicotinic receptor subtypes. Incubation was terminated by rapid filtration on a multimanifold tissue harvester (Brandel, Gaithersburg, Md.) using GF/B filters presoaked in 0.33% polyethyleneimine (w/v) to reduce non-specific binding. Filters were washed 3 times with ice-cold assay buffer and the retained radioactivity was determined by liquid scintillation counting.
(§6) Binding data were expressed as percent total control binding. Replicates for each point were averaged and plotted against the log of drug concentration. The IC50 (concentration of the compound that produces 50% inhibition of binding) was determined by least squares non-linear regression using GraphPad Prism software (GraphPAD, San Diego, Calif.). Ki was calculated using the Cheng-Prusoff equation (Cheng and Prusoff, 1973).

human α3β4 = molecular target: T2, human α3β4 (Homo sapiens, UniProt P30926+P32297); assay: Calcium flux inhibition, CHO-human α3β4 cells; format: cell-based
T2 construct: host or cells: CHO
Experimental: as §3, §2

Nicotinic, human α4β2 = Nicotinic, human α4β2 (Homo sapiens, UniProt P17787+P43681); assay: Competition binding, human α4β2 nicotinic receptor ([3H]nicotine)
Experimental: as §1, §4, §5, §6

human α4β2 (LS) = human α4β2 (LS) (Homo sapiens, UniProt P17787+P43681); assay: Calcium flux inhibition, SH-EP1-human α4β2 maintained at 37° C. (LS); format: cell-based
Experimental: as §1
as §2, with “For inhibition studies, the agonist nicotine was used at concentrations of 1 μM for SH-EP1-human α4β2 treated at 29° C. (HS), 10 μM for SH-EP1-human α4β2 maintained at 37° C.” left out

Nicotinic, human α7 = molecular target: T3, Nicotinic, human α7 (Homo sapiens, UniProt P36544); assay: Competition binding, human α7 nicotinic receptor (CHO human α7 membranes); conditions: [3H]TC-12018 0.5 nM
T3 construct: host or cells: CHO
Experimental: as §3, with “α7” for “α3β4”, “#CT6201)” for “#CT6021)”, “NM_000746.4 (α7)” for “NM_000743.2”, “NM_024557.4 (hRIC3).” for “NM_000750.3, respectively.”
as §4
Binding to nicotinic receptors was assayed on membranes using standard methods adapted from published procedures (Lippiello and Fernandes 1986; Davies et al., 1999). […] Filters were washed 3 times with ice-cold assay buffer and the retained radioactivity was determined by liquid scintillation counting.
Binding data were expressed as percent total control binding. […] Ki was calculated using the Cheng-Prusoff equation (Cheng and Prusoff, 1973).

What does the source list for `CC[C@@]12CCC[C@]1(NC)[C@H]1CC[C@@H]2C1`?
IC50 (human α4β2 (HS)): 0.6 µM; Human α4β2 Ca Flux Imax [29C/HS] (human α4β2 (HS); 29° C.-treated cells (HS), nicotine 1 μM): 98 % inh; Ki (Nicotinic, human α3β4): 56 µM; IC50 (human α3β4): 0.17 µM; Human CHO α3β4 Ca Flux Imax (human α3β4; nicotine 20 μM): 97 % inh; Ki (Nicotinic, human α4β2): 26 µM; IC50 (human α4β2 (LS)): 5 µM; Emax (human α4β2 (LS); read-out: Human α4β2 Ca Flux Imax [37C/HS]): 93%; Ki (Nicotinic, human α7): 79 µM
